Here are results for 50 molecules from the Deep4Chem optical property database.

The nature of this data set: solvent given as SMILES.
Setting [1] is: in c1ccc2c(c1)c1ccccc1n2-c1ccc(-c2ccc(-n3c4ccccc4c4ccccc43)cc2)cc1.

Turning to `CN(C)c1ccc(C#Cc2ccc3ccc4c(C#Cc5ccc(N(C)C)cc5)ccc5ccc2c3c54)cc1`, the emission maximum amounted to 489.2 nm (in C1COCCO1); 569.6 nm (in CC(C)=O); 460.4 nm (in CCCCCC); 528.2 nm (in CCCCCCO); 540 nm (in CCO); 523.5 nm (in CCOC(C)=O). The same molecule registered an emission maximum (in CO) of 554 nm, an emission maximum (in Cc1ccccc1) of 483.7 nm and an emission maximum (in ClCCl) of 532.8 nm.
In the case of `COc1cc2c(cc1OC)C1=C[C@H](c3ccccc3)C3(C(C(=O)O[C@@H]4C[C@H]5CC[C@@H]4C5)=C(C(=O)O[C@H]4C[C@@H]5CC[C@H]4C5)N1CC2)c1ccccc1-c1ccccc13`, under “in ClCCl”, the emission maximum is recorded as 422 nm.
As for `CCn1c2ccccc2c2cc(C#Cc3cc(C#Cc4ccc5c(c4)c4ccccc4n5CC)nc(SC)n3)ccc21`, the emission maximum is, setting by setting: (in C1CCOC1) 449 nm; (in CCOC(C)=O) 446 nm; (in CN(C)C=O) 502 nm; (in Cc1ccccc1) 416 nm; (in ClCCl) 471 nm.
Molecule `O=P1(c2ccccc2)C(c2ccc(N(c3ccccc3)c3ccccc3)cc2)=Cc2ccccc21` (centres undefined) came in with an emission maximum (in C1CCOC1) of 521 nm; an emission maximum (in CC#N) of 577 nm; an emission maximum (in CN(C)C=O) of 566 nm; an emission maximum (in Cc1ccccc1) of 490 nm; an emission maximum (in ClC(Cl)Cl) of 529 nm; an emission maximum (in ClCCl) of 544 nm.
As to `CC(C)c1cccc(C(C)C)c1N1C(=O)c2cc(Cl)c3c4c(Cl)cc5c6c(cc(Cl)c(c7c(Cl)cc(c2c37)C1=O)c64)C(=O)N(c1c(C(C)C)cccc1C(C)C)C5=O`, the emission maximum (in Cc1ccccc1) came out at 552 nm.
For `COC(=O)C(NC(=O)OC(C)(C)C)c1ccc2oc(-c3cccc(Oc4ccccc4)c3)nc2c1` (centres undefined), the emission maximum by setting is: (in CC1CCCCC1) 325 nm; (in CC#N) 360 nm; (in CO) 348 nm.
For the molecule `CCCCCCCCCCC(CCCCCCCCCC)Cn1c2cc(-c3ccc(C(C)(C)C)cc3)c3cccc4c5ccc6c7cc(-c8cc(C(C)(C)C)cc(C(C)(C)C)c8)n8c7c(c7cc1c(c5c76)c2c34)=C1C=CC(c2cc(C(C)(C)C)cc(C(C)(C)C)c2)=[N+]1[B-]8(F)F`, the emission maximum (in Cc1ccccc1) is given as 830 nm.
On to `CC(C)(C)c1ccc(-c2nc(-c3ccc(C(C)(C)C)cc3)nc(-c3cc(C#N)c(-n4c5ccccc5c5c6oc7ccccc7c6ccc54)c(C#N)c3)n2)cc1`, for which the emission maximum (in C1CCOC1) amounted to 504.66 nm.
In turn, `Cn1c2ccccc2c2cc(/C=C/C3=[O+][B-](F)(F)OC(/C=C/c4ccc5c(c4)c4ccccc4n5C)=C3c3ccccc3)ccc21` returned an emission maximum (in ClCCl) of 636 nm.
Consider `FC(F)(F)c1cc2n(n1)[B-](c1ccccc1)(c1ccccc1)[n+]1ccc3ccccc3c1-2`, for which the emission maximum came out at 410 nm (in C1CCCCC1), 410 nm (in Cc1ccccc1) and 404 nm (in ClCCl).
For the molecule `Cc1cc(C)c(B(c2c(C)cc(C)cc2C)c2c(C)cc(N3c4ccccc4Oc4ccccc43)cc2C)c(C)c1`, the emission maximum was 509 nm (in Cc1ccccc1) and 504 nm under setting [1].
As to `CCn1c2ccccc2c2cc(-c3cc(-c4ccc5c(c4)c4ccccc4n5CC)nc(N4CCCCC4)n3)ccc21`, the emission maximum is recorded as 408 nm (in C1CCOC1); 409 nm (in CCOC(C)=O); 417 nm (in CN(C)C=O); 406 nm (in Cc1ccccc1); 414 nm (in ClCCl).
Under “in ClCCl”, `CCCCCCCCCCCCN1C(=O)c2c(c3ccc4cc(-c5ccc(N(C)C)cc5)c(OC)cc4c3c3c2ccc2cc(-c4ccc(N(C)C)cc4)c(OC)cc23)C1=O` returned an emission maximum of 620 nm.
Where the note is “in CCO”, `Nc1ccc2c(-c3ccc(Br)cc3)c3ccc(=[NH2+])cc-3oc2c1` returned an emission maximum of 532 nm.
For the setting “in ClCCl”, `O=[N+]([O-])c1ccc(O)c(-c2nc3c(c4c2-c2ccccc2CC4)-c2ccccc2CC3)c1` yielded an emission maximum of 541 nm.
Still for that read-out and setting: for `COc1cccc2cc(C#N)c(=N)oc12` the value was 462 nm.
Under “in CC#N”, `COC(=O)CC1(C(=O)OC)Oc2c(c(C(C)=O)c3c(c2C(C)=O)OCO3)O1` came in with an emission maximum of 532 nm.
`O=C(O)c1c2ccccc2nc2ccccc12`: the emission maximum runs as follows: (in C1CCOC1) 418 nm; (in C1COCCO1) 421 nm; (in CC#N) 421 nm; (in CCCCCO) 422 nm; (in CCCCO) 422 nm; (in CCCO) 422 nm. In addition, the emission maximum is on record as 421 nm (in CCO); 421 nm (in CO); 419 nm (in COCCOC); 436 nm (in ClC(Cl)Cl); 422 nm (in ClCCl); 425 nm (in OCCO).
`Clc1ccccc1N1c2c(sc3ccccc23)Sc2sc3ccccc3c21` yielded an emission maximum (in ClCCl) of 574 nm.
`COc1ccc(-c2ccc(-c3ccc(OC)cc3)cc2)cc1`: where the note is “in C1CCCCC1”, the emission maximum was found to be 360 nm.
`CCCCCCCCOc1cc(/C=C/c2cc(OCCCCCCCC)c(/C=C/c3cc(OCCCCCCCC)c(Br)cc3OCCCCCCCC)cc2OCCCCCCCC)c(OCCCCCCCC)cc1Br` showed an emission maximum (in ClCCl) of 467 nm.
In turn, `N#Cc1cc(N2c3ccccc3Oc3ccccc32)c(N2c3ccccc3Oc3ccccc32)cc1C#N` showed an emission maximum under setting [1] of 612 nm.
Take `CCCn1c(-c2cc(-c3nc4ccccc4n3CCC)cc(-c3nc4ccccc4n3CCC)c2)nc2ccccc21`: the emission maximum (in CS(C)=O) came to 381 nm.
As for `CCc1c(C)c2n(c1C)[B-](F)(F)[N+]1=C(NCc3ccc(OC)cc3)C=CC1=C2C`, the emission maximum runs as follows: (in CC#N) 546 nm; (in CCCCCC) 554 nm; (in CCOC(C)=O) 549 nm; (in CO) 548 nm; (in ClCCl) 551 nm.
`COc1ccc2c(c1)CCC1=C(c3ccccc3)C3=C(c4ccc5cccc(O)c5n4)c4c(-c5ccccc5)c5c(n4[B-](F)(F)[N+]3=C12)-c1ccc(OC)cc1CC5` gave an emission maximum (in O) of 680 nm.
For the setting “in C1CCCCC1”, `CC(C)(C)C#Cc1ccc2c3cccc4cccc(c5cccc1c52)c43` gave an emission maximum of 459.88 nm.
For the molecule `CN(C)c1ccc(-c2nc3ccccc3n2-c2ccccc2)cc1`, the emission maximum (in CC#N) is reported as 397 nm.
The molecule `O=C1c2cc(-c3ccccc3)ccc2-c2ccc(-c3ccccc3)cc21` yielded an emission maximum (in C1CCOC1) of 360 nm.
In turn, `Cc1c(COC(=O)Cc2cccc3ccccc23)n2c(OCC(=O)Cc3cccc4ccccc34)c(C)c(=O)n2c1=O` registered an emission maximum (in CCO) of 458 nm.
`c1ccc2[nH]c(-c3cc(-c4nc5ccccc5[nH]4)cc(-c4nc5ccccc5[nH]4)c3)nc2c1` gave an emission maximum (in CS(C)=O) of 379.1 nm.
As for `O=c1oc2ccccc2cc1-c1ccc(-c2cc3ccccc3oc2=O)cc1`, the emission maximum is, setting by setting: (in CC#N) 426 nm; (in CCO) 426 nm; (in CCOC(C)=O) 426 nm; (in CS(C)=O) 430 nm; (in Cc1ccccc1) 424 nm; (in ClC(Cl)Cl) 430 nm.
With `CN(C)c1ccc(/C=C/c2cnc(-c3ccncc3)o2)cc1`, for the setting “in ClCCl”, the emission maximum amounted to 550 nm.
For `O=S1(=O)C2=C(c3ccc(-c4ccc(N(c5ccccc5)c5ccccc5)cc4)cc31)C1(C3=C(c4ccccc41)S(=O)(=O)c1cc(-c4ccc(N(c5ccccc5)c5ccccc5)cc4)ccc13)c1ccccc12`, the emission maximum by setting is: (in C1CCOC1) 599 nm; (in CC#N) 665 nm; (in CCCCCC) 485 nm; (in Cc1ccccc1) 543 nm; (in ClCCl) 624 nm.
Regarding `CCOC(=O)c1c2c3c(ccc(C)c3c3cc4c(cc13)[Si](C)(C)O[Si]4(C)C)N(C)C2=O`, the emission maximum (in CC#N) stood at 413 nm.
On the same count and under the same terms, as for `COc1ccc(C2=[O+][B-](F)(F)OC(c3ccc4c(c3)Cc3ccccc3-4)=C2)cc1`, the figure is 466 nm; as for `C(#Cc1nccnc1C#Cc1ccccc1)c1ccccc1`, 380 nm.
Molecule `Nc1cccc2c1ccc1[n+]2[B-](F)(F)n2c-1cc1c3ccccc3c3ccccc3c12` came in with an emission maximum (in ClCCl) of 580 nm.
As to `COc1ccc(-c2nc(-c3ccccc3)c(N(C)C)[se]2)cc1`, the emission maximum (in ClC(Cl)Cl) is listed as 438 nm.
As for `O=P1(c2ccccc2)C(c2ccc(C(F)(F)F)cc2)=Cc2ccccc21` (centres undefined), the emission maximum (in C1CCOC1) was 414 nm.
Same read-out and setting: for `COC(=O)C1(C(=O)OC)Cc2c(C#Cc3ccc(OC)cc3)c(-c3ccc(OC)cc3)c3c(-c4ccccc4)c(-c4ccccc4)c(-c4ccccc4)c(-c4ccccc4)c3c2C1` the value was 421.77 nm.
Under “in ClC(Cl)Cl”, `c1cc2ccc3[nH]c4ccc5cccc6c(c1)c2c3c4c56` gave an emission maximum of 436 nm.
`CN(C)CCCN1c2ccccc2Sc2ccccc21`: the emission maximum worked out at 444 nm (in CC#N), 444 nm (in CO) and 452 nm (in O).
Take `CC[N+]1(CC)CN2C(C)=CC(C)=C(C(=O)O)C2=N1`: the emission maximum was found to be 449 nm (in CN(C)C=O) and 449 nm (in O).
For `Cc1cn(C)c(=O)nc1-n1cncn1`, the emission maximum (in O) came out at 389 nm.
With `CCCCCCCCCCCCOc1cc2c3cc(OCCCCCCCCCCCC)c(OCCCCCCCCCCCC)cc3c3c(cc(OCCCCCCCCCCCC)c4nc5cc(C#Cc6ccc(CCCCCCCCCC)cc6)c(C#Cc6ccc(CCCCCCCCCC)cc6)cc5nc43)c2cc1OCCCCCCCCCCCC`, the emission maximum (in ClC(Cl)Cl) is recorded as 663 nm.
For `CCOC(=O)c1ccc(C2CC(c3cccc4ccccc34)=NN2c2ccc(OC)cc2)cc1` (centres undefined), the emission maximum (in ClCCl) turned out to be 505 nm.
In turn, `CCCCCCn1c2cc(/C=C/c3ccccc3)ccc2c2ccc(/C=C/c3ccccc3)cc21` returned an emission maximum (in ClC(Cl)Cl) of 414.94 nm.
`C(=C\c1nc2c3ccccc3c3ccccc3c2o1)/c1ccccc1` had an emission maximum (in CC#N) of 434 nm.
Take `O=C(c1ccc(C(=C(c2ccccc2)c2ccccc2)c2ccccc2)cc1)c1ccc(-n2c3ccccc3c3ccccc32)cc1`: the emission maximum (in C1CCOC1) was found to be 496 nm.
Consider `CCC1=C(C)C2=Cc3c4ccccc4c4n3[B-](c3cc[n+](C)cc3)(Oc3ccccc3-4)[N+]2=C1C=Cc1ccc(OC)cc1` (centres undefined), for which the emission maximum runs as follows: (in CO) 717 nm; (in CS(C)=O) 727 nm.
